From ChEMBL document CHEMBL1201862, “PubChem BioAssay data set” (2004) come the findings set out here.

Some test systems named below: SK-MEL-2; ACHN; Malme-3M; RXF 393; KM-20L2; KM12; HCT-116; OVCAR-3; MOLT-4; LOX IMVI; SK-MEL-5; COLO 205; HCT-15; UACC-62; HOP-62; SNB-19; CAKI-1; BT-549; PC-3; MDA-MB-231.
What all share (test): NCI tumour cell line growth inhibition, 48 h

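All cell lines were grown in 96-well plates and treated with compound for 48 hours. GI50 = concentration required for 50% inhibition of growth.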 The source made the active and inactive calls. Cut-off read from the data, not from the text of the source: active = GI50 up to about 1.1 µM and inactive = higher.

For the molecule `[Zn+2][N+]12CCN3CCN4CCN(CC1)[PH]432` (stereo not drawn), the GI50 in the test with SK-MEL-2, with ACHN, with Malme-3M, in the test on RXF 393, with KM-20L2 and in the test on KM12 was > 100 µM (inactive) each time. In addition, the GI50 with HCT-116, with OVCAR-3, with MOLT-4, with LOX IMVI, with SK-MEL-5 and with COLO 205 was > 100 µM (inactive) throughout. Moreover, the GI50 in the test with HCT-15 was over 100 µM; in the test with UACC-62, > 100 µM (inactive); in the test on HOP-62, > 100 µM (inactive); in the test with SNB-19, > 100 µM (inactive).

For the molecule `CC(=O)NC(ON1C(=O)COc2ccccc21)C(Cl)(Cl)Cl` (stereo not drawn), the GI50 in the test on SK-MEL-2, in the test on ACHN, with Malme-3M, in the test on KM-20L2, with KM12 and in the test on HCT-116 was > 100 µM (inactive) throughout. Also, the GI50 in the test with OVCAR-3 is > 100 µM (inactive); in the test on CAKI-1 it was > 100 µM (inactive); with MOLT-4 it was > 100 µM (inactive); in the test on LOX IMVI it was > 100 µM (inactive); in the test on COLO 205, > 100 µM (inactive); with HCT-15 it was over 100 µM. The GI50 with UACC-62, in the test with HOP-62 and in the test on SNB-19 was > 100 µM (inactive) in each case.

For the molecule `CCOC(=O)C(=O)Nc1c(C)cccc1C(C)C`, the GI50 with SK-MEL-2, with ACHN, in the test on Malme-3M, in the test on KM-20L2, with KM12 and with HCT-116 was > 100 µM (inactive) throughout. The GI50 with OVCAR-3 is > 100 µM (inactive); in the test on CAKI-1, > 100 µM (inactive); in the test with MOLT-4, > 100 µM (inactive); with SK-MEL-5 it was > 100 µM (inactive); in the test with COLO 205, > 100 µM (inactive); in the test on HCT-15, over 100 µM. Further, the GI50 in the test with UACC-62, in the test with HOP-62 and in the test on SNB-19 was > 100 µM (inactive) in each case.

In the case of `c1ccc2c(c1)Sc1ccccc1N2C1CN2CCC1CC2` (stereo not drawn), the GI50 is 4.46 µM (inactive) with SK-MEL-2; 16.9 µM (inactive) in the test on ACHN; 16.3 µM (inactive) in the test with Malme-3M; 15.2 µM (inactive) with KM-20L2; 15.2 µM (inactive) in the test with KM12; 15.5 µM (inactive) in the test on HCT-116. The GI50 with OVCAR-3 is 15.8 µM (inactive); in the test with CAKI-1, 17.2 µM (inactive); with MOLT-4 it was 12.8 µM (inactive); with LOX IMVI it was 10.9 µM (inactive); in the test with SK-MEL-5 it was 15.6 µM (inactive); in the test on COLO 205, 16.8 µM (inactive). In addition, the GI50 with HCT-15 was 16.8 µM; with UACC-62, 15.2 µM (inactive); with HOP-62, 12.9 µM (inactive); in the test with SNB-19, 18.8 µM (inactive).

Regarding `COC(=O)c1ccc(C(=O)OC)c2nc3cc(C)ccc3nc12`, the GI50 in the test on SK-MEL-2, with ACHN, in the test on Malme-3M, in the test on KM-20L2, in the test on KM12 and in the test with OVCAR-3 was > 100 µM (inactive) in each case. Further, the GI50 in the test with CAKI-1 was > 100 µM (inactive); in the test with MOLT-4 it was > 100 µM (inactive); with LOX IMVI, > 100 µM (inactive); in the test with SK-MEL-5 it was > 100 µM (inactive); with COLO 205 it was > 100 µM (inactive); with HCT-15, over 100 µM. Besides, the GI50 with UACC-62, with HOP-62 and in the test with SNB-19 was > 100 µM (inactive) throughout.

With `CSc1nc(-c2ccccc2)nc(N2CCOCC2)[s+]1`, the GI50 is > 100 µM (inactive) in the test on SK-MEL-2; > 100 µM (inactive) with ACHN; > 100 µM (inactive) in the test with Malme-3M; 21.3 µM (inactive) in the test with RXF 393; > 100 µM (inactive) with KM-20L2; > 100 µM (inactive) with KM12. The GI50 in the test with HCT-116 is > 100 µM (inactive); in the test with OVCAR-3 it was > 100 µM (inactive); in the test with MOLT-4, 26.8 µM (inactive); with LOX IMVI, 43 µM (inactive); in the test on SK-MEL-5, > 100 µM (inactive); in the test with COLO 205, 37 µM (inactive). Also, the GI50 in the test with HCT-15 is 37.8 µM; in the test with UACC-62, 28.6 µM (inactive); in the test on HOP-62, > 100 µM (inactive); with SNB-19 it was > 100 µM (inactive).

For `Cc1cc(Cl)ccc1NC(=O)CCCC(=O)C1CCC/C1=N\NC(=O)CC#N` (stereo not drawn), the GI50 in the test on SK-MEL-2, in the test with ACHN, with Malme-3M, in the test on KM-20L2, with KM12 and with HCT-116 was > 100 µM (inactive) in each case. Also, the GI50 with OVCAR-3 is > 100 µM (inactive); in the test with CAKI-1, > 100 µM (inactive); with MOLT-4, > 100 µM (inactive); with SK-MEL-5 it was > 100 µM (inactive); in the test with COLO 205, > 100 µM (inactive); in the test with HCT-15, over 100 µM. Further, the GI50 in the test on UACC-62 and in the test with SNB-19 was > 100 µM (inactive) throughout.

Consider `COc1ccccc1NC(=O)CC(=O)NNCC(=O)Nc1nnc(-c2ccccc2)o1`, for which the GI50 in the test on SK-MEL-2, in the test with ACHN, with KM-20L2, with KM12, in the test on HCT-116 and in the test with OVCAR-3 was > 100 µM (inactive) throughout. Moreover, the GI50 in the test with CAKI-1 is > 100 µM (inactive); in the test on MOLT-4, > 100 µM (inactive); in the test with LOX IMVI, > 100 µM (inactive); in the test with SK-MEL-5, > 100 µM (inactive); in the test on COLO 205 it was > 100 µM (inactive); with HCT-15, over 100 µM. Also, the GI50 in the test on UACC-62, with HOP-62 and in the test on SNB-19 was > 100 µM (inactive) each time.

Consider `Cc1cccc2[n+]1[C@H]1[C@H]([C@@H]3O[C@H]1c1ccccc13)[S+]([O-])N2` (stereo partly drawn), for which the GI50 was 25.2 µM (inactive) in the test with SK-MEL-2; 57.7 µM (inactive) in the test on ACHN; 28.6 µM (inactive) in the test on Malme-3M; 89.1 µM (inactive) in the test with RXF 393; 42.7 µM (inactive) in the test on KM-20L2; 42.4 µM (inactive) in the test with KM12. The GI50 with HCT-116 was 30.3 µM (inactive); with OVCAR-3, 35.9 µM (inactive); in the test with MOLT-4 it was 38.2 µM (inactive); with LOX IMVI, 25.9 µM (inactive); in the test on COLO 205, 61.1 µM (inactive); in the test on HOP-62, 48.1 µM (inactive). Also, the GI50 in the test on SNB-19 is 37.9 µM (inactive).

As to `CCOc1ccc(/N=C/c2cccc3cccnc23)cc1`, the GI50 in the test on SK-MEL-2 was > 100 µM (inactive); with ACHN it was > 100 µM (inactive); with Malme-3M, > 100 µM (inactive); with RXF 393 it was > 100 µM (inactive); in the test with KM-20L2 it was > 100 µM (inactive); with KM12, 39.8 µM (inactive). In addition, the GI50 in the test on HCT-116 is 43.8 µM (inactive); in the test on OVCAR-3, > 100 µM (inactive); in the test with CAKI-1, > 100 µM (inactive); in the test on MOLT-4, 45.3 µM (inactive); in the test on SK-MEL-5 it was > 100 µM (inactive); in the test with COLO 205 it was > 100 µM (inactive). The GI50 in the test with HCT-15 is 38.2 µM; in the test on UACC-62, > 100 µM (inactive); in the test with HOP-62 it was > 100 µM (inactive); in the test on SNB-19, > 100 µM (inactive).

Consider `Nc1ccc(C(=O)N/C(=C\c2cccc([N+](=O)[O-])c2)c2nc3cc(Cl)ccc3[nH]2)cc1`, for which the GI50 in the test with SK-MEL-2 is > 100 µM (inactive); in the test on ACHN it was > 100 µM (inactive); in the test with Malme-3M, > 100 µM (inactive); in the test with RXF 393, > 100 µM (inactive); with KM-20L2 it was 17 µM (inactive); in the test on KM12 it was > 100 µM (inactive). For the same molecule, the GI50 was > 100 µM (inactive) in the test with OVCAR-3; 77.6 µM (inactive) in the test with CAKI-1; > 100 µM (inactive) in the test with MOLT-4; > 100 µM (inactive) in the test with SK-MEL-5; > 100 µM (inactive) with COLO 205; over 100 µM with HCT-15. Further, the GI50 in the test on UACC-62 and in the test with SNB-19 was > 100 µM (inactive) in each case.

With `O=S(=O)(O)c1ccc(/N=N/c2ccc(/N=N/c3c(O)ccc4ccccc34)cc2)cc1`, the GI50 was > 100 µM (inactive) in the test with SK-MEL-2; > 100 µM (inactive) with ACHN; > 100 µM (inactive) in the test with BT-549; 35.6 µM (inactive) in the test on Malme-3M; > 100 µM (inactive) in the test on RXF 393; > 100 µM (inactive) in the test with PC-3. For the same molecule, the GI50 with MDA-MB-231 was > 100 µM (inactive); in the test with KM12, 98.6 µM (inactive); in the test on HCT-116 it was > 100 µM (inactive); in the test with OVCAR-3, > 100 µM (inactive); in the test on CAKI-1, > 100 µM (inactive); in the test on MOLT-4, > 100 µM (inactive). Further, the GI50 in the test with LOX IMVI is > 100 µM (inactive); in the test with SK-MEL-5, > 91.8 µM (inactive); in the test with COLO 205, > 100 µM (inactive); in the test on HCT-15, over 100 µM; in the test on UACC-62, > 100 µM (inactive); with HOP-62, > 100 µM (inactive). Also, the GI50 with SNB-19 was > 100 µM (inactive).

For the molecule `COC(=O)c1sc2ncc3c(c2c1N)CC(C)CC3` (stereo not drawn), the GI50 was > 100 µM (inactive) in the test with SK-MEL-2; > 100 µM (inactive) in the test on ACHN; > 100 µM (inactive) in the test on BT-549; > 100 µM (inactive) in the test with Malme-3M; 70.6 µM (inactive) in the test on RXF 393; > 100 µM (inactive) in the test on PC-3. For the same molecule, the GI50 with MDA-MB-231, in the test on KM12, in the test with HCT-116, with OVCAR-3, in the test with CAKI-1 and in the test with MOLT-4 was > 100 µM (inactive) in each case. Moreover, the GI50 in the test with LOX IMVI was 71.3 µM (inactive); in the test with SK-MEL-5, > 100 µM (inactive); in the test with COLO 205, > 100 µM (inactive); in the test on HCT-15, over 100 µM; in the test with UACC-62, > 100 µM (inactive); in the test with HOP-62, > 100 µM (inactive). Moreover, in the test on SNB-19, the GI50 is > 100 µM (inactive).
